Where a SMILES comes first, the peptide text is derived from it. Where only a bound is given, the exact number is not on record here.

The experiment deals with T1, Interleukin-23 receptor (Homo sapiens, UniProt Q5VWK5).
T1 sequence (Q5VWK5 whole entry): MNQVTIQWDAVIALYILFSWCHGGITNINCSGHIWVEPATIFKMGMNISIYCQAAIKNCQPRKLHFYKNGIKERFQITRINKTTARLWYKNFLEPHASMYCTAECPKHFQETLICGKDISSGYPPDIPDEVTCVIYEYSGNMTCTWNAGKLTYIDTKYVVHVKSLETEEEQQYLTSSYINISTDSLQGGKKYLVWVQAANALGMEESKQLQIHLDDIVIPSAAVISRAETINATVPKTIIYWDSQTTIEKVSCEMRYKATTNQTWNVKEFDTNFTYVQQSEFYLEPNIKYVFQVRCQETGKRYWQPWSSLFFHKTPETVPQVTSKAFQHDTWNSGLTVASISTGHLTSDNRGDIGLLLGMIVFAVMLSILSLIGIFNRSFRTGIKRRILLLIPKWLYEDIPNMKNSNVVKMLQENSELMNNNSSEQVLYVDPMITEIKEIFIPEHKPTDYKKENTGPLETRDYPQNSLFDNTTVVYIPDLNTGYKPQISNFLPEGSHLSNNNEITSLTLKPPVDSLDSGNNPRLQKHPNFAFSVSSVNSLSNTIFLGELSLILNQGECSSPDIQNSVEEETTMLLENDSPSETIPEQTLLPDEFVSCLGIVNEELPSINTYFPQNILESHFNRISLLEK
The experiment can be described thus: Inhibition of interleukin-23 binding to human interleukin-23 receptor incubated for 2 hrs by competitive binding ELISA.
As for `CC(=O)N[C@H](C(=O)N[C@@H](CCC(N)=O)C(=O)N[C@H](C(=O)N[C@@H](Cc1c[nH]c2ccccc12)C(=O)N[C@@H](CCC(N)=O)C(=O)N[C@H](C(=O)N[C@@H](Cc1cc(F)cc(F)c1)C(=O)N[C@@H](Cc1ccc2ccccc2c1)C(=O)N[C@@](C)(CCCN)C(=O)N[C@@H](CCC(N)=O)C(=O)N[C@@H](CC(N)=O)C(=O)NCC(N)=O)C(C)(C)S)[C@@H](C)O)C(C)(C)S`, the IC50 lay within 100 to 1000 nM. The value for `CC(=O)N[C@@H](CS)C(=O)N[C@@H](CCC(N)=O)C(=O)N[C@H](C(=O)N[C@@H](Cc1c[nH]c2ccccc12)C(=O)N[C@@H](CCC(N)=O)C(=O)N[C@@H](CS)C(=O)N[C@H](C(=O)N[C@@H](Cc1c[nH]c2ccccc12)C(=O)N[C@@H](CCC(C)C)C(=O)N[C@@H](CCC(=O)O)C(=O)N[C@@H](CC(N)=O)C(=O)NCC(N)=O)[C@@H](C)O)[C@@H](C)O` was > 30000 nM.

In the case of `CC(=O)N[C@H]1CCSC[C@@H](C(=O)N[C@@H](Cc2ccc(OCCN)cc2)C(=O)N[C@@H](Cc2ccc3ccccc3c2)C(=O)N[C@@](C)(CCCCN)C(=O)N[C@@H](CCC(=O)O)C(=O)N[C@@H](CC(N)=O)C(=O)NCC(N)=O)NC(=O)[C@H](CCC(N)=O)NC(=O)[C@@H]2Cc3ccccc3CN2C(=O)[C@H]([C@@H](C)O)NC(=O)[C@H](CCC(N)=O)NC1=O`, the IC50 is > 3000 nM. The figure for `CC(C)[C@H](NC(=O)[C@H](Cc1c[nH]c2ccccc12)NC(=O)[C@H](CC(=O)O)NC(=O)[C@@H](NC(=O)[C@@H](N)CS)[C@@H](C)O)C(=O)N[C@@H](CS)C(=O)N[C@@H](Cc1ccc(O)cc1)C(=O)N[C@@H](Cc1c[nH]c2ccccc12)C(=O)N[C@@H](Cc1cnc[nH]1)C(=O)N[C@@H](CCC(=O)O)C(=O)N[C@@H](Cc1ccc(O)cc1)C(=O)N[C@@H](CO)C(N)=O` (H-CTDWVCYWHEYS-NH2) is > 1000 nM. The figure for `CC(=O)N[C@@H](CS)C(=O)N[C@@H](C)C(=O)N[C@@H](CC(=O)O)C(=O)N[C@@H](Cc1c[nH]c2ccccc12)C(=O)N[C@H](C(=O)N[C@@H](CS)C(=O)N[C@@H](Cc1ccc(O)cc1)C(=O)N[C@@H](Cc1cccc2ccccc12)C(=O)N[C@H](C(=O)N[C@H](C(=O)N[C@@H](Cc1ccccc1)C(=O)NCC(N)=O)[C@@H](C)O)C(C)C)C(C)C` is 500 to 1000 nM. With `CC(=O)N[C@@H](CCC(N)=O)C(=O)N[C@H](C(=O)N[C@@H](Cc1c[nH]c2ccccc12)C(=O)N[C@@H](CCC(N)=O)C(=O)N[C@@H](CS)C(=O)N[C@@H](Cc1ccc(O)cc1)C(=O)N[C@@H](Cc1c[nH]c2ccccc12)C(=O)N(C)[C@@H](CC(C)C)C(=O)N[C@@H](CCC(=O)O)C(=O)N[C@@H](CC(N)=O)C(=O)NCC(N)=O)[C@@H](C)O`, the IC50 was > 6000 nM. On to `CC(=O)N[C@@H](CS)C(=O)N[C@@H](CCC(N)=O)C(=O)N[C@H](C(=O)N[C@@H](Cc1c[nH]c2ccccc12)C(=O)N[C@@H](CCC(N)=O)C(=O)N[C@@H](CS)C(=O)N[C@@H](Cc1ccc(O)cc1)C(=O)N[C@@H](Cc1c[nH]c2ccccc12)C(=O)N[C@@H](CCCNC(=N)N)C(=O)N[C@@H](CCC(=O)O)C(=O)N[C@@H](CC(N)=O)C(=O)NCC(=O)NCCOCC(=O)N[C@H](CCCNC(=N)N)C(N)=O)[C@@H](C)O`, for which the IC50 is < 500 nM.

`CC(=O)NCC(=O)N[C@@H](CC(=O)O)C(=O)N[C@@H](Cc1cnc[nH]1)C(=O)N[C@@H](CCCCN)C(=O)N[C@@H](CS)C(=O)N[C@@H](CO)C(=O)N[C@@H](CO)C(=O)N[C@@H](Cc1c[nH]c2ccccc12)C(=O)N[C@@H](CCC(=O)O)C(=O)N[C@@H](CS)C(=O)N[C@@H](Cc1ccc(O)cc1)C(=O)N[C@@H](Cc1c[nH]c2ccccc12)C(=O)N[C@@H](Cc1cnc[nH]1)C(=O)N[C@H](C(=O)N[C@@H](Cc1ccccc1)C(=O)NCC(N)=O)[C@@H](C)O` (Ac-GDHKCSSWECYWHTFG-NH2) yielded an IC50 of 500 to 1000 nM.

On to `CC(=O)N[C@@H](CS)C(=O)N[C@@H](CCC(N)=O)C(=O)N[C@H](C(=O)N[C@@H](Cc1c[nH]c2ccccc12)C(=O)N[C@@H](CCC(N)=O)C(=O)N[C@@H](CS)C(=O)N[C@@H](Cc1ccc(O)cc1)C(=O)N[C@@H](Cc1c[nH]c2ccccc12)C(=O)N[C@H](CCCNC(=N)N)C(=O)N[C@@H](CCC(=O)O)C(=O)N[C@@H](CC(N)=O)C(=O)NCC(=O)NCCOCC(=O)N[C@H](CCCCN)C(N)=O)[C@@H](C)O`, for which the IC50 was > 1000 nM. The figure for `CC(=O)N[C@@H](CS)C(=O)N[C@@H](CCC(N)=O)C(=O)N[C@H](C(=O)N[C@@H](Cc1c[nH]c2ccccc12)C(=O)N[C@@H](CCC(N)=O)C(=O)N[C@@H](CS)C(=O)N[C@@H](CCC(=O)O)C(=O)N[C@@H](Cc1c[nH]c2ccccc12)C(=O)N[C@@H](CCC(C)C)C(=O)N[C@@H](CCC(=O)O)C(=O)N[C@@H](CC(N)=O)C(=O)NCC(N)=O)[C@@H](C)O` is > 30000 nM; for `CC(C)[C@H](NC(=O)[C@H](Cc1cnc[nH]1)NC(=O)[C@H](Cc1c[nH]c2ccccc12)NC(=O)[C@H](Cc1ccc(O)cc1)NC(=O)[C@H](CS)NC(=O)[C@@H](NC(=O)[C@H](Cc1c[nH]c2ccccc12)NC(=O)[C@@H](NC(=O)[C@H](CCCNC(=N)N)NC(=O)[C@@H](N)CS)[C@@H](C)O)[C@@H](C)O)C(=O)N[C@@H](Cc1ccc(O)cc1)C(=O)NCC(N)=O` (H-CRTWTCYWHVYG-NH2) it is 500 to 1000 nM. The value for `CC(=O)N[C@@H](CS)C(=O)N[C@@H](CCCCN)C(=O)N[C@H](C(=O)N[C@@H](Cc1c[nH]c2ccccc12)C(=O)N[C@H](C(=O)N[C@@H](CS)C(=O)N[C@@H](Cc1ccc(O)cc1)C(=O)N[C@@H](Cc1c[nH]c2ccccc12)C(=O)N[C@@H](Cc1cnc[nH]1)C(=O)N[C@@H](CCC(=O)O)C(=O)N[C@@H](Cc1ccccc1)C(=O)NCC(N)=O)[C@@H](C)O)[C@@H](C)O` (Ac-CKTWTCYWHEFG-NH2) was < 500 nM; that for `CC[C@H](C)[C@H](NC(=O)[C@H](Cc1cnc[nH]1)NC(=O)[C@H](Cc1c[nH]c2ccccc12)NC(=O)[C@H](Cc1ccc(O)cc1)NC(=O)[C@H](CS)NC(=O)[C@H](CCC(=O)O)NC(=O)[C@H](Cc1c[nH]c2ccccc12)NC(=O)[C@H](CC(=O)O)NC(=O)[C@H](CO)NC(=O)[C@@H](N)CS)C(=O)N[C@@H](Cc1ccccc1)C(=O)NCC(N)=O` (H-CSDWECYWHIFG-NH2) was > 1000 nM. The figure for `CC(=O)N[C@H]1CCSC[C@@H](C(=O)N[C@@H](Cc2ccc(OCCN)cc2)C(=O)N[C@@H](Cc2ccc3ccccc3c2)C(=O)N[C@@](C)(CCCCN)C(=O)N[C@@H](CCC(=O)O)C(=O)N[C@@H](CC(N)=O)C(=O)NCC(N)=O)NC(=O)[C@H](CCC(N)=O)NC(=O)[C@@H]2Cc3c([nH]c4ccccc34)CN2C(=O)[C@H]([C@@H](C)O)NC(=O)[C@H](CCC(N)=O)NC1=O` is 100 to 1000 nM; for `N=C(N)NCCC[C@H](NC(=O)[C@H](Cc1c[nH]c2ccccc12)NC(=O)[C@H](Cc1ccc(O)cc1)NC(=O)[C@@H]1CSCCCC(=O)N[C@@H](CCC(N)=O)C(=O)N[C@@H](CC(=O)O)C(=O)N[C@@H](Cc2c[nH]c3ccccc23)C(=O)N[C@@H](CCC(N)=O)C(=O)N1)C(=O)N[C@@H](CCC(=O)O)C(=O)N[C@@H](CC(N)=O)C(=O)NCC(=O)NCCOCC(=O)N[C@H](CCCCN)C(N)=O` it is 6000 nM.

Take `CC(=O)N[C@H](C(=O)N[C@@H](CCC(N)=O)C(=O)N[C@H](C(=O)N[C@@H](Cc1c[nH]c2ccccc12)C(=O)N[C@@H](CCC(N)=O)C(=O)N[C@H](C(=O)N[C@@H](Cc1ccc(Cl)c(Cl)c1)C(=O)N[C@@H](Cc1ccc2ccccc2c1)C(=O)N[C@@](C)(CCCN)C(=O)N[C@@H](CCC(=O)O)C(=O)N[C@@H](CC(N)=O)C(=O)NCC(N)=O)C(C)(C)S)[C@@H](C)O)C(C)(C)S`: the half-maximal inhibitory concentration (IC50) fell in the range of 100 to 1000 nM.

The values above are taken from ChEMBL document CHEMBL4417631, “Oral peptide inhibitors of interleukin-23 receptor and their use to treat inflammatory bowel diseases” (2017).
